According to the supplement of paper PMC8149375:

Columns and labels:
Settings in all cases: treatment: drug alone; 5 days
[1] = tested on: 769-P; experiment: AUC of dose-response viability curve, drug alone (arbitrary (AUC of normalised viability)); higher = less growth inhibition
Method: (§1)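 Primary HTS: 8 RCC cell lines treated with 8 doses (up to 10 uM) of each library drug alone for 5 days; viability read by CellTiter-Glo and normalised to DMSO. GI50 was fitted with XLfit (4-parameter), AUC is the area under the dose-response curve, and minimum viability is the lowest fraction of DMSO viability across doses.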

[2] = tested on: A498; experiment: as above
Method: as §1

[3] = tested on: CAKI-1; experiment: as above
Method: as §1

[4] = tested on: ACHN; experiment: as above
Method: as §1

[5] = tested on: TK-10; experiment: as above
Method: as §1

[6] = tested on: SN12C; experiment: as above
Method: as §1

[7] = tested on: 786-O; experiment: as above
Method: as §1

[8] = tested on: UO-31; experiment: as above
Method: as §1

[9] = tested on: 769-P; experiment: minimum viability across doses, drug alone, relative to DMSO (fraction); higher = less growth inhibition
Method: as §1

[10] = tested on: A498; experiment: as above
Method: as §1

[11] = tested on: CAKI-1; experiment: as above
Method: as §1

[12] = tested on: ACHN; experiment: as above
Method: as §1

[13] = tested on: TK-10; experiment: as above
Method: as §1

[14] = tested on: SN12C; experiment: as above
Method: as §1

[15] = tested on: 786-O; experiment: as above
Method: as §1

[16] = tested on: UO-31; experiment: as above
Method: as §1

[17] = tested on: 769-P; experiment: GI50, drug alone; higher = less potent
Method: as §1

[18] = tested on: A498; experiment: GI50, drug alone; higher = less potent
Method: as §1

[19] = tested on: CAKI-1; experiment: GI50, drug alone; higher = less potent
Method: as §1

[20] = tested on: ACHN; experiment: GI50, drug alone; higher = less potent
Method: as §1

[21] = tested on: TK-10; experiment: GI50, drug alone; higher = less potent
Method: as §1

[22] = tested on: SN12C; experiment: GI50, drug alone; higher = less potent
Method: as §1

[23] = tested on: 786-O; experiment: GI50, drug alone; higher = less potent
Method: as §1

[24] = tested on: UO-31; experiment: GI50, drug alone; higher = less potent
Method: as §1

Row | SMILES | AUC of dose-response viability curve [1] | AUC of dose-response viability curve [2] | AUC of dose-response viability curve [3] | AUC of dose-response viability curve [4] | AUC of dose-response viability curve [5] | AUC of dose-response viability curve [6] | AUC of dose-response viability curve [7] | AUC of dose-response viability curve [8] | minimum viability across doses [9] | minimum viability across doses [10] | minimum viability across doses [11] | minimum viability across doses [12] | minimum viability across doses [13] | minimum viability across doses [14] | minimum viability across doses [15] | minimum viability across doses [16] | GI50, drug alone [17] [µM] | GI50, drug alone [18] [µM] | GI50, drug alone [19] [µM] | GI50, drug alone [20] [µM] | GI50, drug alone [21] [µM] | GI50, drug alone [22] [µM] | GI50, drug alone [23] [µM] | GI50, drug alone [24] [µM]
1 | CN1CCN(CCOc2cc(OC3CCOCC3)c3c(Nc4c(Cl)ccc5c4OCO5)ncnc3c2)CC1 [Saracatinib (AZD0530)] | 2.47 | 3.69 | 3.08 | 2.46 | 2.45 | 2.84 | 2.35 | 4.46 | 0.0835 | 0.958 | 0.213 | 0.22 | 0.109 | 0.504 | 0.302 | 0.447 | 1.26 | > 10 | 2.34 | 1.03 | 1.22 | > 10 | 2.81 | 8.99
2 | Cc1cc(C)c(/C=C2\C(=O)Nc3ccccc32)[nH]1 [Semaxanib (SU5416)] | 3.45 | 3.76 | 3.45 | 2.92 | 3.2 | 3.42 | 3.12 | 4.68 | 0.892 | 0.97 | 0.902 | 0.76 | 0.778 | 0.911 | 0.778 | 0.928 | > 10 | > 10 | > 10 | > 10 | > 10 | > 10 | > 10 | > 10
3 | CNC(=O)c1cc(Oc2ccc(NC(=O)Nc3ccc(Cl)c(C(F)(F)F)c3)cc2)ccn1.Cc1ccc(S(=O)(=O)O)cc1 [Sorafenib (Nexavar)] | 3.31 | 3.4 | 3.55 | 3.46 | 3.25 | 2.9 | 2.7 | 2.44 | 0.592 | 0.627 | 0.18 | 0.0796 | 0.513 | 0.154 | 0.0994 | 0.00476 | > 10 | > 10 | 9.2 | 8.05 | > 10 | 5.13 | 4.87 | 0.734
4 | CN1CCN(c2nc(C3=C(c4c[nH]c5ccccc45)C(=O)NC3=O)c3ccccc3n2)CC1 [Sotrastaurin (AEB071)] | 2.58 | 4.36 | 3.38 | 3.2 | 3.23 | 3.44 | 4 | 5.49 | 0.969 | 1.12 | 0.783 | 0.743 | 0.805 | 0.91 | 0.911 | 1.38 | > 10 | > 10 | > 10 | > 10 | > 10 | > 10 | > 10 | > 10
5 | CN[C@@H]1C[C@H]2O[C@@](C)([C@@H]1OC)n1c3ccccc3c3c4c(c5c6ccccc6n2c5c31)C(=O)NC4 [Staurosporine] | 0.299 | 1.56 | 0.143 | 0.526 | 0.286 | 1.06 | 0.171 | 0.1 | 0.00587 | 0.0127 | 0.00272 | 0.00377 | 0.0227 | 0.00485 | 0.00288 | 0.0116 | < 0.003 | 0.0909 | < 0.003 | 0.00533 | < 0.003 | 0.0333 | < 0.003 | < 0.003
6 | CCN(CC)CCNC(=O)c1c(C)[nH]c(/C=C2\C(=O)Nc3ccc(F)cc32)c1C.O=C(O)C[C@H](O)C(=O)O [Sunitinib Malate (Sutent)] | 3.15 | 3.58 | 2.77 | 2.33 | 2.82 | 2.6 | 3.62 | 3.93 | 0.156 | 0.21 | 0.0138 | 0.0641 | 0.186 | 0.0296 | 0.0182 | 0.0171 | 5.36 | 5.2 | 1.49 | 0.65 | 3.29 | 1.9 | 3.98 | 3.15
7 | COc1cc(N2CCC(N3CCN(C)CC3)CC2)ccc1Nc1ncc(Cl)c(Nc2ccccc2S(=O)(=O)C(C)C)n1 [TAE684 (NVP-TAE684)] | 3.21 | 3.29 | 2.9 | 2.65 | 2.82 | 2.74 | 1.87 | 4.34 | 0.722 | 0.399 | 0.255 | 0.237 | 0.356 | 0.182 | 0.124 | 0.927 | > 10 | 1.43 | 2.33 | 1.84 | 3.59 | 2.62 | < 0.003 | > 10
8 | CC(C)(O)CC(=O)NCCn1ccc2ncnc(Nc3ccc(Oc4cccc(C(F)(F)F)c4)c(Cl)c3)c21 [TAK-285] | 3.04 | 3.69 | 3.14 | 2.78 | 2.5 | 3.17 | 2.42 | 4.9 | 0.407 | 0.852 | 0.584 | 0.421 | 0.412 | 0.81 | 0.524 | 1.21 | 6.69 | > 10 | > 10 | 4.12 | 3.95 | > 10 | > 10 | > 10
9 | Cn1c(=O)c(F)c(Nc2ccc(I)cc2F)c2c(=O)n(C[C@@H](O)CO)cnc21 [TAK-733] | 2.33 | 3.42 | 1.57 | 1.8 | 1.72 | 2.08 | 2.08 | 3.49 | 0.293 | 0.784 | 0.17 | 0.291 | 0.242 | 0.26 | 0.396 | 0.0861 | 0.933 | > 10 | 0.095 | 0.209 | 0.149 | 0.758 | 0.167 | 2.45
10 | CCS(=O)(=O)c1cccc(-c2cc(C(=O)NC3CCN(C)CC3)c(C)c3[nH]c4ncc(C)cc4c23)c1 [TAK-901] | 3.25 | 3.09 | 2.65 | 2.33 | 2.27 | 1.98 | 1.81 | 4.08 | 0.521 | 0.0141 | 0.0277 | 0.0394 | 0.0432 | 0.00544 | 0.00628 | 0.21 | > 10 | 0.956 | 1.32 | 0.708 | 0.836 | 0.383 | 0.381 | 8.94
11 | Nc1nc(N)c2nc(-c3cccc(O)c3)c(-c3cccc(O)c3)nc2n1 [TG100-115] | 3.5 | 4.15 | 2.42 | 3.33 | 3.25 | 3.31 | 3.66 | 5.18 | 0.912 | 0.862 | 0.567 | 0.685 | 0.871 | 0.804 | 0.873 | 1.2 | > 10 | > 10 | > 10 | > 10 | > 10 | > 10 | > 10 | > 10
12 | Cc1cc(C(C)Nc2ccccc2)c2nc(N3CCOCC3)cc(=O)n2c1 (configuration not stated) [TGX-221] | 3.18 | 4.23 | 2.84 | 3.15 | 3.06 | 3.34 | 2.6 | 5.04 | 0.749 | 1.04 | 0.49 | 0.736 | 0.707 | 0.847 | 0.622 | 1.15 | > 10 | > 10 | 8.6 | > 10 | > 10 | > 10 | > 10 | > 10
13 | NC(=O)Nc1sc(-c2ccc(F)cc2)cc1C(N)=O [TPCA-1] | 3.16 | 4.38 | 2.67 | 2.57 | 2.53 | 3.24 | 2.54 | 3.64 | 0.355 | 1.1 | 0.117 | 0.201 | 0.178 | 0.544 | 0.189 | 0.627 | > 10 | > 10 | 1.45 | 1.29 | 1.78 | > 10 | 4.89 | > 10
14 | Cc1[nH]c(/C=C2\C(=O)Nc3ccccc32)c(C)c1CCC(=O)O [TSU-68] | 3.3 | 3.71 | 3.34 | 3.12 | 3.26 | 3.41 | 3.1 | 2.36 | 0.887 | 0.884 | 0.903 | 0.752 | 0.855 | 0.882 | 0.786 | 0.879 | > 10 | > 10 | > 10 | > 10 | > 10 | > 10 | > 10 | > 10
15 | CC(C)c1ccccc1Cc1cc(C(=O)Nc2ccc(S(=O)(=O)c3ccccc3C(C)(C)C)cc2)c(O)c(O)c1O [TW-37] | 3.12 | 4 | 2.77 | 2.48 | 2.25 | 2.97 | 1.54 | 4.07 | 0.0442 | 0.946 | 0.0857 | 0.0989 | 0.296 | 0.499 | 0.0508 | 0.0881 | 2.8 | > 10 | 0.926 | 1.46 | 1.73 | > 10 | 0.133 | 8.46
16 | Nc1cccc(-c2cc3c(Oc4cccc(O)c4)ncnc3[nH]2)c1 [TWS119] | 2.93 | 3.93 | 3.09 | 2.77 | 2.75 | 2.86 | 3.03 | 4.2 | 0.0987 | 0.572 | 0.113 | 0.153 | 0.0991 | 0.295 | 0.154 | 0.0946 | 3.63 | > 10 | 4.56 | 2.8 | 2.65 | 5.5 | 5.04 | 8.62
17 | COc1cc2c(N3CCN(C(=O)Nc4ccc(OC(C)C)cc4)CC3)ncnc2cc1OCCCN1CCCCC1 [Tandutinib (MLN518)] | 3.32 | 3.63 | 3.41 | 3.5 | 3.23 | 3.14 | 3.61 | 4.36 | 0.818 | 0.96 | 0.729 | 0.767 | 0.818 | 0.74 | 0.609 | 1.09 | > 10 | > 10 | > 10 | > 10 | > 10 | > 10 | > 10 | > 10
18 | CNC(=O)c1cc(COc2nnc(Nc3ccc(Cl)cc3)c3ccoc23)ccn1 [Telatinib (BAY 57-9352)] | 3.4 | 4.32 | 3.3 | 3.42 | 2.96 | 3.27 | 2.61 | 4.45 | 0.484 | 0.951 | 0.267 | 0.497 | 0.319 | 0.79 | 0.0383 | 0.749 | 9.79 | > 10 | 6.76 | 9.99 | 6.45 | > 10 | 3.22 | > 10
